Here are results for 36 molecules from patent US20230339886A1 (University of Florida Research Foundation, Incorporated, priority 2020, published 2023).

SMILES strings stand for the structures. pEC50: −log10 of the molar value.

The target of the first assay is T1, REV-ERBα LBD (human; residues 281-614 Δ324-422) (Homo sapiens, UniProt P20393, DEL324-422).
T1 construct: 6×Histag-REV-ERBα LBD (human; residues 281-614 Δ324-422); made in house; host or cells: Escherichia coli
T1 sequence (P20393 with tags, fused parts or gaps DEL324-422): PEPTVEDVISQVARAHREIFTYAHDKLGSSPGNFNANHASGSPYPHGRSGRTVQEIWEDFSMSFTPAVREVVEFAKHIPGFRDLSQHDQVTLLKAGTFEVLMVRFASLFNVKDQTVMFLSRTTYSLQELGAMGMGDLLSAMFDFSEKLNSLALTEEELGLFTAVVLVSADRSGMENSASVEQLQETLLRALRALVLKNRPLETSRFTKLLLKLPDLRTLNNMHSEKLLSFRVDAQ
T1 sequence (Q9Y618 2335-2356 partner limits assumed): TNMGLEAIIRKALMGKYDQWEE
Briefly: TR-FRET corepressor interaction assay (REV-ERBα LBD, FITC-SMRT peptide). It is filed as biochemical. The settings on record: FITC-SMRT peptide, read-out: REVERBα agonism (EC50 class, FRET assay). The gist of the method:
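Compound serial dilutions (in DMSO, triplicate) incubated 2 h at 4 °C; Tb donor excited at 340 nm, emission read at 495 nm and FITC acceptor at 520 nm. TR-FRET ratio (520/495 nm) plotted against ligand concentration and fitted to a sigmoidal dose-response curve.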
Background: TR-FRET usually uses a lanthanide donor and a delayed reading to cut background.
As a reminder, the pEC50 is −log10 of the EC50, conventionally taken in molar units. As to `CC(C)(C)Cn1cc([C@H](NS(=O)(=O)C2CCC2)C(F)F)c2ccc(-c3c(C#N)cccc3C(F)(F)F)cc21` [Example 535, (S)—N-(1-(6-(2-cyano-6-(trifluoromethyl)phenyl)-1-neopentyl-1H-indol-3-yl)-2,2-difluoroethyl)cyclobutanesulfonamide], the pEC50 was more than 6.30.
Consider `CC(C)(C)Cn1cc([C@H](NS(=O)(=O)C2CC2)C(F)F)c2cc(F)c(-c3ccccc3C(F)(F)F)cc21` [Example 542, (S)—N-(2,2-difluoro-1-(5-fluoro-1-neopentyl-6-(2-(trifluoromethyl)phenyl)-1H-indol-3-yl)ethyl)cyclopropanesulfonamide], for which the pEC50 was more than 6.30.
On the same count and under the same terms, the figure for `CC(C)(C)Cn1cc([C@H](NS(=O)(=O)C2CC2)C(F)(F)F)c2ccc(-c3c(F)cccc3Cl)cc21` [Example 464, (S)—N-(1-(6-(2-chloro-6-fluorophenyl)-1-neopentyl-1H-indol-3-yl)-2,2,2-trifluoroethyl)cyclopropanesulfonamide] is more than 6.30.
Turning to `CC(C)(C)Cn1cc([C@H](NS(=O)(=O)C2CCC2)C(F)F)c2ccc(-c3ccccc3C(F)(F)F)nc21` [Example 518, (S)—N-(2,2-difluoro-1-(1-neopentyl-6-(2-(trifluoromethyl)phenyl)-1H-pyrrolo[2,3-b]pyridin-3-yl)ethyl)cyclobutanesulfonamide], the pEC50 was more than 6.30.
On to `CC(C)(C)Cn1cc([C@H](NS(=O)(=O)C2CCC2)C(F)F)c2cc(F)c(-c3ccccc3C(F)(F)F)cc21` [Example 435, (S)—N-(2,2-difluoro-1-(5-fluoro-1-neopentyl-6-(2-(trifluoromethyl)phenyl)-1H-indol-3-yl)ethyl)cyclobutanesulfonamide], for which the pEC50 is more than 6.30.
Still for that read-out and setting: the figure for `CC(C)(C)Cn1cc([C@H](NS(=O)(=O)C2CCC2)C(F)(F)F)c2ccc(C3CCCC3)nc21` [Example 427, (S)—N-(1-(6-cyclopentyl-1-neopentyl-1H-pyrrolo[2,3-b]pyridin-3-yl)-2,2,2-trifluoroethyl)cyclobutanesulfonamide] is more than 6.30.
As to `CC(C)(C)Cn1cc([C@H](NS(=O)(=O)C2CCC2)C(F)(F)F)c2ccc(-c3ccccc3C(F)(F)F)c(F)c21` [Example 544, (S)—N-(2,2,2-trifluoro-1-(7-fluoro-1-neopentyl-6-(2-(trifluoromethyl)phenyl)-1H-indol-3-yl)ethyl)cyclobutanesulfonamide], the pEC50 is more than 6.30.
Take `CC(C)(C)Cn1cc([C@H](NS(=O)(=O)C2CC2)C(F)(F)F)c2ccc(-c3ncccc3C#N)cc21` [Example 468, (S)—N-(1-(6-(3-cyanopyridin-2-yl)-1-neopentyl-1H-indol-3-yl)-2,2,2-trifluoroethyl)cyclopropanesulfonamide]: the pEC50 was more than 6.30.
Still for that read-out and setting: the figure for `CC(NS(=O)(=O)C1CC1)c1cn(CC(C)(C)C)c2cc(-c3ccccc3C(F)(F)F)c(F)cc12` (stereo not drawn) [Example 423, N-(1-(5-fluoro-1-neopentyl-6-(2-(trifluoromethyl)phenyl)-1H-indol-3-yl)ethyl)cyclopropanesulfonamide] is more than 6.30; for `CC(C)C(=O)n1cc([C@H](NS(=O)(=O)C2CCC2)C(F)(F)F)c2cc(F)c(-c3ccccc3C(F)(F)F)cc21` [Example 505, (S)—N-(2,2,2-trifluoro-1-(5-fluoro-1-isobutyryl-6-(2-(trifluoromethyl)phenyl)-1H-indol-3-yl)ethyl)cyclobutanesulfonamide] it is more than 6.30.
For the molecule `CC(C)(C)C(=O)n1cc([C@H](NS(=O)(=O)C2CC2)C(F)(F)F)c2ccc(-c3ccccc3C(F)(F)F)cc21` [Example 480, (S)—N-(2,2,2-trifluoro-1-(1-pivaloyl-6-(2-(trifluoromethyl)phenyl)-1H-indol-3-yl)ethyl)cyclopropanesulfonamide], the pEC50 is 5.52 to 6.30.
On to `CC(C)(C)Cn1cc([C@H](NS(=O)(=O)C2CCC2)C(F)(F)F)c2cc(F)c(-c3ccccc3C#N)cc21` [Example 440, (S)—N-(1-(6-(2-cyanophenyl)-5-fluoro-1-neopentyl-1H-indol-3-yl)-2,2,2-trifluoroethyl)cyclobutanesulfonamide], for which the pEC50 is more than 6.30.

Staying with this assay, now noted: Table 2, read-out: REVERBα agonism (EC50 class, FRET assay).
For the molecule `CN(C)S(=O)(=O)NCCc1cn(Cc2ccccc2F)c2cc(-c3ccncc3)ccc12` [Example 150, N-{2-[6-(pyridin-4-yl)-1-(2-fluorobenzyl)-1H-indol-3-yl]ethyl}-N,N-dimethylsulfuric diamide], the pEC50 is 5.52 to 6.30.
Turning to `CC(C)Cn1cc(CC(NS(=O)(=O)C(C)C)C(F)(F)F)c2ccc(-c3ccncc3)cc21` (stereo not drawn) [Compound 273], the pEC50 is less than 5.52.
With `CC(C)Cn1cc(CCNS(=O)(=O)N(C)C)c2ccc(C(C)(C)C)cc21` [Example 106, ({2-[6-tert-butyl-1-(2-methylpropyl)-1H-indol-3-yl]ethyl}sulfamoyl)dimethylamine], the pEC50 is less than 5.52.
In the case of `CC(C)(C)Cc1cn(CCNS(=O)(=O)C2CC2)c2ccc(-c3ccccc3)cc12` [Example 225, N-(2-(3-neopentyl-5-phenyl-1H-indol-1-yl)ethyl)cyclopropanesulfonamide], the pEC50 is 5.52 to 6.30.
With `CC(C)Cn1cc(CNS(=O)(=O)C(C)C)c2cc(F)c(-c3ccccc3Cl)cc21` [Compound 267], the pEC50 is more than 6.30.
As to `CC(C)Cn1cc(CCN(C)S(=O)(=O)N(C)C)c2ccc(C(F)(F)F)cc21` [Example 121, dimethyl[methyl({2-[1-(2-methylpropyl)-6-(trifluoromethyl)-1H-indol-3-yl]ethyl})sulfamoyl]amine], the pEC50 is 5.52 to 6.30.
On the same count and under the same terms, the figure for `CC(C)(C)Cc1cn(CCNS(=O)(=O)C2CC2)c2ccc(-c3ccc(F)cc3C(F)(F)F)c(F)c12` [Example 295] is 5.52 to 6.30; for `CC(C)Cn1cc(CNS(=O)(=O)N2CCCC2)c2ccc(-c3ccncc3)cc21` [Compound 244] it is more than 6.30.
Regarding `CC(C)(C)Cn1cc([C@H](NS(=O)(=O)C2CC2)C(F)(F)F)c2ccc(-c3cccc(F)c3C#N)cc21` [Example 386, (S)—N-(1-(6-(2-cyano-3-fluorophenyl)-1-neopentyl-1H-indol-3-yl)-2,2,2-trifluoroethyl)cyclopropanesulfonamide], the pEC50 is 5.52 to 6.30.
Turning to `CC(C)Cn1cc(CC(C)N(C)S(=O)(=O)C(C)C)c2ccc(-c3ccncc3)cc21` (stereo not drawn) [Compound 276], the pEC50 was more than 6.30.
With `CC(C)Cn1cc(CCS(=O)(=O)C(C)C)c2ccc(C3CCCCC3)cc21` [Compound 250], the pEC50 is more than 6.30.
For `CNS(=O)(=O)c1ccccc1-c1ccc2c(CCNS(=O)(=O)N(C)C)cn(CC(C)C)c2c1` [Example 72, N′-{2-[6-(2-N′-methylsulfonamidophenyl)-1-(2-methylpropyl)-1H-indol-3-yl]ethyl}-N,N-dimethylsulfuric diamide], the pEC50 is 5.52 to 6.30.
Still for that read-out and setting: for `CC(C)Cn1cc(CCNS(=O)(=O)N(C)C)c2ccc(-c3ccoc3)cc21` [Compound 66, ({2-[6-(furan-3-yl)-1-(2-methylpropyl)-1H-indol-3-yl]ethyl}sulfamoyl)dimethylamine] the value was more than 6.30; for `CN(C)S(=O)(=O)NCCc1cn(Cc2cccc(F)c2)c2cc(-c3ccncc3)ccc12` [Example 144, N-{2-[6-(pyridin-4-yl)-1-(3-fluorobenzyl)-1H-indol-3-yl]ethyl}-N,N-dimethylsulfuric diamide], more than 6.30; for `CC(C)S(=O)(=O)CCn1cc(CC(C)(C)C)c2cc(Br)ccc21` [Example 175, 5-bromo-1-(2-(isopropylsulfonyl)ethyl)-3-neopentyl-1H-indole], less than 5.52.
Still for that read-out and setting: the figure for `CC(C)S(=O)(=O)NCCc1cn(CCC(C)(C)C)c2cc(-c3ccncc3)ccc12` [Compound 270] is more than 6.30.
Turning to `CC(C)(C)Cn1cc(CCNS(=O)(=O)C2CC2)c2ccc(-c3ccc(C(F)(F)F)cc3C#N)cc21` [Example 400, N-(2-(6-(2-cyano-4-(trifluoromethyl)phenyl)-1-neopentyl-1H-indol-3-yl)ethyl)cyclopropanesulfonamide], the pEC50 is more than 6.30.
As for `CC(C)(C)Cn1cc([C@H](NS(=O)(=O)C2CC2)C(F)(F)F)c2ccc(-c3ccccc3Cl)cc21` [Example 332, (S)—N-(1-(6-(2-chlorophenyl)-1-neopentyl-1H-indol-3-yl)-2,2,2-trifluoroethyl)cyclopropanesulfonamide], the pEC50 was more than 6.30.
Regarding `O=S(=O)(N[C@@H](c1cn(CC2CCCC2)c2cc(-c3ccccc3C(F)(F)F)c(F)cc12)C(F)(F)F)C1CC1` [Example 422, (S)—N-(1-(1-(cyclopentylmethyl)-5-fluoro-6-(2-(trifluoromethyl)phenyl)-1H-indol-3-yl)-2,2,2-trifluoroethyl)cyclopropanesulfonamide], the pEC50 was more than 6.30.
Take `CC(C)(C)Cn1cc([C@H](NS(=O)(=O)N2CCCC2)C(F)(F)F)c2cc(F)c(-c3ccccc3C(F)(F)F)cc21` [Example 347, (S)—N-(2,2,2-trifluoro-1-(5-fluoro-1-neopentyl-6-(2-(trifluoromethyl)phenyl)-1H-indol-3-yl)ethyl)pyrrolidine-1-sulfonamide]: the pEC50 was more than 6.30.
For the molecule `CC(C)Cn1cc(CCS(=O)(=O)C(C)C)c2ccc(-c3ccncc3)cc21` [Compound 248], the pEC50 is more than 6.30.
As to `CC(C)(C)Cn1cc([C@H](NS(=O)(=O)C2CC2)C(F)(F)F)c2ccc(-c3c(C#N)cccc3C(F)(F)F)cc21` [Example 389, (S)—N-(1-(6-(2-cyano-6-(trifluoromethyl)phenyl)-1-neopentyl-1H-indol-3-yl)-2,2,2-trifluoroethyl)cyclopropanesulfonamide], the pEC50 is more than 6.30.
For `CN(C)S(=O)(=O)NCCc1cn(CCOC(C)(C)C)c2cc(-c3ccncc3)ccc12` [Compound 237], the pEC50 is 5.52 to 6.30.
Regarding `CC(C)Cn1cc(CCNS(=O)(=O)N(C)C)c2ccc(Cl)cc21` [Example 109, ({2-[6-chloro-1-(2-methylpropyl)-1H-indol-3-yl]ethyl}sulfamoyl)dimethylamine], the pEC50 is more than 6.30.
